Where two headings read alike, the source gives them in different places. Peptide text beside a SMILES is read from it.
Legend:
[1] = target: T1, bradykinin receptor of the B2 class (rat uterus) (Rattus norvegicus, UniProt P25023); assay: Rat uterus (RU) in vitro, antagonism of bradykinin; settings: Table C, rat uterus
T1 construct: concentration effect curves to bradykinin (BK) on rat uterus in vitro; from tissue; host or cells: rat uterus
T1 sequence (P25023 1-396): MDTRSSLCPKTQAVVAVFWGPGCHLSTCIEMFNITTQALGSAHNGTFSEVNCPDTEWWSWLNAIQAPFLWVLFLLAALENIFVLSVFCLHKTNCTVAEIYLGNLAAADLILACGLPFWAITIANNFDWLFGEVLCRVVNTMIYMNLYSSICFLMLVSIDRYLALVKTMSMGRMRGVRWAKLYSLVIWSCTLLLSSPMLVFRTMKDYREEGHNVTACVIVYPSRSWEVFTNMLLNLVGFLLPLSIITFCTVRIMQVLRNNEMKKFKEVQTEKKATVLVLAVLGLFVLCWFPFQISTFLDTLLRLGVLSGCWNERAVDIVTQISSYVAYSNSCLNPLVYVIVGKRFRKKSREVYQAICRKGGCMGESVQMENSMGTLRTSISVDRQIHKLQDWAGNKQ
How it was run: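 Isolated rat uterus; bradykinin antagonism expressed as pA2, the negative log molar antagonist concentration that halves agonist potency. After the highest antagonist concentration, tissues were washed extensively and percent recovery was recorded.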

[2] = target: T2, bradykinin receptor of the B2 class (guinea-pig ileum) (Cavia porcellus, UniProt O70526); settings: Table B; Cys position scan, monomers and BMH dimers
T2 sequence (O70526 1-372): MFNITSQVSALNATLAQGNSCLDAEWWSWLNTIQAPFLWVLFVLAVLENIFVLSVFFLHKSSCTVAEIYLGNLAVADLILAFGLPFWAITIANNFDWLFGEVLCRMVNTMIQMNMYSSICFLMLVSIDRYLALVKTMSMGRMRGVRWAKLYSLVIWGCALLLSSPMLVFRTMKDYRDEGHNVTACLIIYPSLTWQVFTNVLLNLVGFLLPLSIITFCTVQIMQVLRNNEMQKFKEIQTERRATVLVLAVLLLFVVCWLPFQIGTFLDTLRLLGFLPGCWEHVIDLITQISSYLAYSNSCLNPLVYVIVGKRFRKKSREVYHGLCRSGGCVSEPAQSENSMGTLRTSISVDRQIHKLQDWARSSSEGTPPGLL

[3] = target: T2, bradykinin receptor of the B2 class (guinea-pig ileum)

SMILES	pA2 DIMER [1]	pA2 GUINEA PIG ILEUM [2]	pA2 MONOMER ([1]; P.A. = Partial Agonist)	also measured
CC(C)C[C@H](NC(=O)[C@@H](Cc1ccccc1)NC(=O)[C@H](CO)NC(=O)[C@H](Cc1ccccc1)NC(=O)CNC(=O)[C@@H]1C[C@@H](O)CN1C(=O)[C@@H]1CCCN1C(=O)[C@H](CCCNC(=N)N)NC(=O)[C@H](N)CCCNC(=N)N)C(=O)N[C@@H](CSC1CC(=O)N(CCCCCCN2C(=O)CC(SC[C@H](NC(=O)[C@H](CC(C)C)NC(=O)[C@@H](Cc3ccccc3)NC(=O)[C@H](CO)NC(=O)[C@H](Cc3ccccc3)NC(=O)CNC(=O)[C@@H]3C[C@@H](O)CN3C(=O)[C@@H]3CCCN3C(=O)[C@H](CCCNC(=N)N)NC(=O)[C@H](N)CCCNC(=N)N)C(=O)O)C2=O)C1=O)C(=O)O (stereo partly shown) [CP-0160] (HELM PEPTIDE1{[dR].R.P.[Hyp].G.F.S.[dF].L.C}|PEPTIDE2{[dR].R.P.[Hyp].G.F.S.[dF].L.C}|CHEM1{[O=C1CC([*:1])C(=O)N1CCCCCCN1C(=O)CC([*:2])C1=O]}$PEPTIDE1,CHEM1,10:R3-1:R1|PEPTIDE2,CHEM1,10:R3-1:R2$$$V2.0)	Inactive	Inactive		
CC(C)C[C@H](NC(=O)[C@@H](Cc1ccccc1)NC(=O)[C@H](CO)NC(=O)[C@H](Cc1ccccc1)NC(=O)[C@@H](CS)NC(=O)[C@@H]1C[C@@H](O)CN1C(=O)[C@@H]1CCCN1C(=O)[C@H](CCCNC(=N)N)NC(=O)[C@H](N)CCCNC(=N)N)C(=O)N[C@@H](CCCNC(=N)N)C(=O)O [CP-0173] (HELM PEPTIDE1{[dR].R.P.[Hyp].[dC].F.S.[dF].L.R}$$$$V2.0)		Inactive	Inactive	
CC(C)C[C@H](NC(=O)[C@@H](Cc1ccccc1)NC(=O)[C@H](CO)NC(=O)[C@H](Cc1ccccc1)NC(=O)[C@H](CS)NC(=O)[C@@H]1C[C@@H](O)CN1C(=O)[C@@H]1CCCN1C(=O)[C@H](CCCNC(=N)N)NC(=O)[C@H](N)CCCNC(=N)N)C(=O)N[C@@H](CCCNC(=N)N)C(=O)O [CP-0136] (HELM PEPTIDE1{[dR].R.P.[Hyp].C.F.S.[dF].L.R}$$$$V2.0)		Inactive	Inactive	
CC(C)C[C@H](NC(=O)[C@@H](Cc1ccccc1)NC(=O)[C@H](CO)NC(=O)[C@H](Cc1ccccc1)NC(=O)[C@@H](CSC1CC(=O)N(CCCCCCN2C(=O)CC(SC[C@@H](NC(=O)[C@@H]3C[C@@H](O)CN3C(=O)[C@@H]3CCCN3C(=O)[C@H](CCCNC(=N)N)NC(=O)[C@H](N)CCCNC(=N)N)C(=O)N[C@@H](Cc3ccccc3)C(=O)N[C@@H](CO)C(=O)N[C@H](Cc3ccccc3)C(=O)N[C@@H](CC(C)C)C(=O)N[C@@H](CCCNC(=N)N)C(=O)O)C2=O)C1=O)NC(=O)[C@@H]1C[C@@H](O)CN1C(=O)[C@@H]1CCCN1C(=O)[C@H](CCCNC(=N)N)NC(=O)[C@H](N)CCCNC(=N)N)C(=O)N[C@@H](CCCNC(=N)N)C(=O)O (stereo partly shown) [CP-0203] (HELM PEPTIDE1{[dR].R.P.[Hyp].[dC].F.S.[dF].L.R}|PEPTIDE2{[dR].R.P.[Hyp].[dC].F.S.[dF].L.R}|CHEM1{[O=C1CC([*:1])C(=O)N1CCCCCCN1C(=O)CC([*:2])C1=O]}$PEPTIDE1,CHEM1,5:R3-1:R1|PEPTIDE2,CHEM1,5:R3-1:R2$$$V2.0)	Inactive	Inactive		
N=C(N)NCCC[C@@H](N)C(=O)N[C@@H](CCCNC(=N)N)C(=O)N1CCC[C@H]1C(=O)N1C[C@H](O)C[C@H]1C(=O)NCC(=O)N[C@@H](Cc1ccccc1)C(=O)N[C@@H](CO)C(=O)N[C@H](Cc1ccccc1)C(=O)N[C@@H](CSC1CC(=O)N(CCCCCCN2C(=O)CC(SC[C@H](NC(=O)[C@@H](Cc3ccccc3)NC(=O)[C@H](CO)NC(=O)[C@H](Cc3ccccc3)NC(=O)CNC(=O)[C@@H]3C[C@@H](O)CN3C(=O)[C@@H]3CCCN3C(=O)[C@H](CCCNC(=N)N)NC(=O)[C@H](N)CCCNC(=N)N)C(=O)N[C@@H](CCCNC(=N)N)C(=O)O)C2=O)C1=O)C(=O)N[C@@H](CCCNC(=N)N)C(=O)O (stereo partly shown) [CP-0159] (HELM PEPTIDE1{[dR].R.P.[Hyp].G.F.S.[dF].C.R}|PEPTIDE2{[dR].R.P.[Hyp].G.F.S.[dF].C.R}|CHEM1{[O=C1CC([*:1])C(=O)N1CCCCCCN1C(=O)CC([*:2])C1=O]}$PEPTIDE1,CHEM1,9:R3-1:R1|PEPTIDE2,CHEM1,9:R3-1:R2$$$V2.0)	Inactive	Inactive		
CC(C)C[C@H](NC(=O)[C@@H](CS)NC(=O)[C@H](CO)NC(=O)[C@H](Cc1ccccc1)NC(=O)CNC(=O)[C@@H]1C[C@@H](O)CN1C(=O)[C@@H]1CCCN1C(=O)[C@H](CCCNC(=N)N)NC(=O)[C@H](N)CCCNC(=N)N)C(=O)N[C@@H](CCCNC(=N)N)C(=O)O [CP-0146] (HELM PEPTIDE1{[dR].R.P.[Hyp].G.F.S.[dC].L.R}$$$$V2.0)		Inactive	Inactive	
CC(C)C[C@H](NC(=O)[C@@H](Cc1ccccc1)NC(=O)[C@H](CO)NC(=O)[C@H](Cc1ccccc1)NC(=O)CNC(=O)[C@@H]1C[C@@H](O)CN1C(=O)[C@@H]1CCCN1C(=O)[C@H](CCCNC(=N)N)NC(=O)[C@H](N)CCCNC(=N)N)C(=O)N[C@@H](CS)C(=O)O [CP-0148] (HELM PEPTIDE1{[dR].R.P.[Hyp].G.F.S.[dF].L.C}$$$$V2.0)		Inactive	Inactive	% REC MONOMER [1]: 100%; Kb ([1]; P.A. = Partial Agonist, read-out: pA2 MONOMER (converted)): 200 nM
CC(C)C[C@H](NC(=O)[C@H](CS)NC(=O)[C@H](CO)NC(=O)[C@H](Cc1ccccc1)NC(=O)CNC(=O)[C@@H]1C[C@@H](O)CN1C(=O)[C@@H]1CCCN1C(=O)[C@H](CCCNC(=N)N)NC(=O)[C@H](N)CCCNC(=N)N)C(=O)N[C@@H](CCCNC(=N)N)C(=O)O [CP-0145] (HELM PEPTIDE1{[dR].R.P.[Hyp].G.F.S.C.L.R}$$$$V2.0)		Inactive	Inactive	
N=C(N)NCCC[C@@H](N)C(=O)N[C@@H](CCCNC(=N)N)C(=O)N1CCC[C@H]1C(=O)N1C[C@H](O)C[C@H]1C(=O)NCC(=O)N[C@@H](Cc1ccccc1)C(=O)N[C@@H](CO)C(=O)N[C@H](Cc1ccccc1)C(=O)N[C@@H](CS)C(=O)N[C@@H](CCCNC(=N)N)C(=O)O [CP-0147] (HELM PEPTIDE1{[dR].R.P.[Hyp].G.F.S.[dF].C.R}$$$$V2.0)		Inactive	Inactive	
CC(C)C[C@H](NC(=O)[C@@H](CSC1CC(=O)N(CCCCCCN2C(=O)CC(SC[C@@H](NC(=O)[C@H](CO)NC(=O)[C@H](Cc3ccccc3)NC(=O)CNC(=O)[C@@H]3C[C@@H](O)CN3C(=O)[C@@H]3CCCN3C(=O)[C@H](CCCNC(=N)N)NC(=O)[C@H](N)CCCNC(=N)N)C(=O)N[C@@H](CC(C)C)C(=O)N[C@@H](CCCNC(=N)N)C(=O)O)C2=O)C1=O)NC(=O)[C@H](CO)NC(=O)[C@H](Cc1ccccc1)NC(=O)CNC(=O)[C@@H]1C[C@@H](O)CN1C(=O)[C@@H]1CCCN1C(=O)[C@H](CCCNC(=N)N)NC(=O)[C@H](N)CCCNC(=N)N)C(=O)N[C@@H](CCCNC(=N)N)C(=O)O (stereo partly shown) [CP-0158] (HELM PEPTIDE1{[dR].R.P.[Hyp].G.F.S.[dC].L.R}|PEPTIDE2{[dR].R.P.[Hyp].G.F.S.[dC].L.R}|CHEM1{[O=C1CC([*:1])C(=O)N1CCCCCCN1C(=O)CC([*:2])C1=O]}$PEPTIDE1,CHEM1,8:R3-1:R1|PEPTIDE2,CHEM1,8:R3-1:R2$$$V2.0)	Inactive	Inactive		
CC(C)C[C@H](NC(=O)[C@@H](Cc1ccccc1)NC(=O)[C@H](CO)NC(=O)[C@H](Cc1ccccc1)NC(=O)CNC(=O)[C@@H]1C[C@@H](O)CN1C(=O)[C@@H]1CCCN1C(=O)[C@H](CCCNC(=N)N)NC(=O)[C@H](N)CSC1CC(=O)N(CCCCCCN2C(=O)CC(SC[C@@H](N)C(=O)N[C@@H](CCCNC(=N)N)C(=O)N3CCC[C@H]3C(=O)N3C[C@H](O)C[C@H]3C(=O)NCC(=O)N[C@@H](Cc3ccccc3)C(=O)N[C@@H](CO)C(=O)N[C@H](Cc3ccccc3)C(=O)N[C@@H](CC(C)C)C(=O)N[C@@H](CCCNC(=N)N)C(=O)O)C2=O)C1=O)C(=O)N[C@@H](CCCNC(=N)N)C(=O)O (stereo partly shown) [CP-0161] (HELM PEPTIDE1{[dC].R.P.[Hyp].G.F.S.[dF].L.R}|PEPTIDE2{[dC].R.P.[Hyp].G.F.S.[dF].L.R}|CHEM1{[O=C1CC([*:1])C(=O)N1CCCCCCN1C(=O)CC([*:2])C1=O]}$PEPTIDE1,CHEM1,1:R3-1:R1|PEPTIDE2,CHEM1,1:R3-1:R2$$$V2.0)				% REC DIMER [1]: 100%; Kb ([1]; read-out: pA2 DIMER (converted)): 316 nM; Kb [3]: ~501 nM

Source: patent US5416191A, “Bradykinin antagonists” (Cortech, Inc., priority 1993, dated 1995)
